Data set [1] concerns rat hepatoma cells. In words: Pulse-chase recovery of [35S]-apoB100 (apoB100 degradation) in rat hepatoma cells. The conditions noted are these: co-treatment with DHA, FIG. 13A and 13B. Format: cell-based. As to the method: (§1) FIG. 13 illustrates that either an iron chelator (DFX) or lipid antioxidants block DHA-stimulated apoB degradation and reactive oxygen species (ROS) production. Rat hepatoma cells were plated in culture wells and pre-incubated in media containing either DHA or DHA with one of the indicated compounds. Radiolabeled methionine/cysteine was added to the culture media for 15 minutes, after which time, the culture media were replaced by fresh media identical in composition except that radiolabeled methionine/cysteine were replaced by unlabeled methionone/cysteine. The recovery of labeled apoB100 ([^35S]-apoB100) from the media and cell lysate was determined at the indicated time points (with time 0 being the point when the fresh media were applied to the cells) by immunoprecipitating apoB species with a rabbit polyclonal antibody to rat apoB, resuspending the immunoprecipitates, combining aliquots from cell lysate and media samples from each well, resolving the protein contents of the combined immunoprecipitates by SDS-polyacrylamide gel electrophoresis (SDS-PAGE), and exposing the resultant gels to X-ray film in order to visualize the labeled apoB bands. In panel A are shown representative signals for radiolabeled apoB100 in each of the treatment conditions. […] For each treatment, there were at least 2 wells/treatment for each time point and the entire experiment repeated. The signal intensities of the apoB100 bands were quantified by densitometry and the mean relative recoveries (the % of the 15 minute, or initial, value still remaining at 120 minutes) ±SEM are shown in panel B. Note that the visual impressions observable in panel A are confirmed by the quantitative analysis; i.e., there is a substantial increase in labeled apoB100 recovery with any of the co-treatments. In panel C, the ROS content of the cell lysates at the end of the experiment was measured by the standard TBARS assay (Stocks et al., 1974, Clin Sci Mol Med 47,215-222). Note that compared to control (BSA), DHA induced a large increase in TBARS, as expected because of its high content on unsaturated bonds.
FIG. 14 illustrates that DHA, but not saturated MA, induces apoB100 degradation in rat hepatoma cells. An experiment similar to the one described in FIG. 13 was performed, with the following changes: A) The immunoprecipitates from cell lysate and media samples were not combined, but separately analyzed. B) In addition to the 15 and 120 minute time points, apoB recovery was determined at 30 minutes. C) In addition to DHA, the effects of the fatty acid myristic (MA) were also tested because it has no unsaturated bonds and should not give rise to ROS.
FIG. 15 illustrates that AA stimulates apoB100 degradation and increases ROS. […] Note in the upper panel that the combined recovery (from two separate wells/time point) of radiolabeled apoB100 decreased from 15 to 120 minutes, indicating significant apoB100 degradation had occurred in the presence of AA. […] In addition to being a source of ROS, AA can also be converted by cyclooxygenase (COX) to bioactive prostaglandin compounds. We therefore repeated the experiment with AA but with co-treatment by the COX inhibitor aspirin.
To further explore the underlying mechanisms, rat hepatoma cells or primary hepatocytes were incubated with the Ω-3 fatty acid DHA complexed to BSA, while blocking candidate cellular mediators. […] There was, however, strong evidence against a role for calcium. Chelation of intracellular Ca^++ with BAPTA-AM, pharmacologic blockage of Ca^++ channels, depletion of the ER-calcium pool, and increasing Ca++ influx with an ionophore each had no effect. Because EGTA also chelates Fe^+++, and DHA is subject to Fe^+++-dependent peroxidation, the role of this lipid modification was examined. As shown in FIG. 13A and 13B, Desferroxamine (DFX), a chelator of Fe^+++, the antioxidant vitamin E (Vit E), and the synthetic antioxidant BHT, each inhibited DHA-stimulated apoB100 degradation by ˜60%.

For data set [2], the system named is rat hepatoma cells. In words: TBARS assay of ROS in cell lysates of rat hepatoma cells. Conditions: co-treatment with DHA, FIG. 13C. The format is cell-based. As for the experimental part:
as §1, with “bonds. […] FIG. 15 illustrates that AA stimulates apoB100 degradation and increases ROS. […] Note in the upper panel that the combined recovery (from two separate wells/time point) of radiolabeled apoB100 decreased from 15 to 120 minutes, indicating significant apoB100 degradation had occurred in the presence of AA. […] In addition to being a source of ROS, AA can also be converted by cyclooxygenase (COX) to bioactive prostaglandin compounds. We therefore repeated the experiment with AA but with co-treatment by the COX inhibitor aspirin.” for “bonds.”

Data set [3] has as its system rat primary hepatocytes. In words: Basal apoB100 degradation (pulse-chase recovery) in rat primary hepatocytes. Format: cell-based. The conditions noted are these: FIG. 16A.
Data set [4] deals with rat primary hepatocytes. The data set can be described thus: TBARS assay of ROS in rat primary hepatocytes. The format is cell-based. Conditions: FIG. 16B.
Data set [5] deals with 125I-LDL. The data set can be described thus: Degradation of exogenously added 125I-LDL (lysosomal inhibition control). The format is cell-based, rat. As to the method: (§2) To determine whether the proteasome mediated Ω-3 fatty acid-induced apoB degradation, rat hepatoma cells were incubated at 37° C. for 4 hr in [^35S]methionine-containing medium supplemented with either BSA or EPA/BSA complexes in the absence or presence of the proteasome inhibitor, lactacystin ([…]; purchased from the laboratory of Dr. E. J. Corey, Harvard University). Samples of cell lysates and conditioned media were subjected to immunoprecipitation analysis with anti-apoB antiserum, followed by SDS-PAGE and fluorography. To determine whether Ω-3 fatty acids targeted apoB to lysosomal degradation, a similar experiment was performed substituting ammonium chloride (40 mM) for lactacystin.
(§3) More evidence against the involvement of re-uptake in Ω-3 fatty acid-induced degradation of apoB is based on the knowledge that lipoproteins captured by either LDL receptors (Brown, M. S., and Goldstein, J. L. (1986) Science 232(4746), 34-47) or heparan sulfate proteoglycans (Williams, K. J. et al. (1992) J Biol Chem 267(19), 13284-92; and Fuki, I. V. et al. (2000) J Biol Chem 275(33), 25742-50) are directed to lysosomes. Thus, rat primary hepatocytes cells were treated with either OA or DHA in the absence or presence of ammonium chloride, a lysosomal inhibitor. […]

The subject of data set [6] is rat hepatoma cells. The data set can be described thus: Cell toxicity by TCA-PTA precipitation analysis. The format is cell-based. The conditions noted are these: 40 mM. As for the experimental part:
After electrophoresis, the gels were stained, fixed, soaked in Enhance fluor solution, and dried following protocols supplied by the manufacturer. Dried gels were then exposed to X-ray film at −70° C. and signals on the resulting fluorograms were typically quantified by densitometry or phosphorimaging. Using the total radioactivity applied to each lane of the gel and the relative signal intensity of each band in that lane, the radioactivity associated with each apoprotein species was calculated. In some cases, gel bands were excised and the incorporated radioactivity measured directly by scintillation counting. As a control, the incorporation of [^35S]methionine into total cellular and secreted proteins was measured by TCA-PTA precipitation, as described in Wang, H., Chen, X., and Fisher, E. A. (1993) J Clin Invest 91(4), 1380-9.
To determine whether the proteasome mediated Ω-3 fatty acid-induced apoB degradation, rat hepatoma cells were incubated at 37° C. for 4 hr in [^35S]methionine-containing medium supplemented with either BSA or EPA/BSA complexes in the absence or presence of the proteasome inhibitor, lactacystin ([…]; purchased from the laboratory of Dr. E. J. Corey, Harvard University). Samples of cell lysates and conditioned media were subjected to immunoprecipitation analysis with anti-apoB antiserum, followed by SDS-PAGE and fluorography. […]

The test system of data set [7] is rat primary hepatocytes. In words: Lysosomal inhibition and DHA-induced degradation of newly synthesized apoB. Format: cell-based. The conditions noted are these: with lysosomal inhibitor. As to the method:
as §2, §3

On to `CC(=O)N(O)CCCCCNC(=O)CCC(=O)N(O)CCCCCNC(=O)CCC(=O)N(O)CCCCCN` [DFX, desferrioxamine], for which the “inhibition of DHA-stimulated apoB100 degradation” value in data set [1] is given as about 60%. Besides, in data set [2], the “DHA-increased ROS, TBARS assay, with co-treatment” value is listed as “reduced”. The “basal level of apoB degradation” value in data set [3] is reported as “essentially reversed”. The “ROS level (TBARS)” value in data set [4] is listed as “reduced”.
As to `Cl.N` [ammonium chloride], the “inhibition of the degradation of exogenously added 125I-LDL” value in data set [5] (ammonium chloride 40 mM) is recorded as over 80%. Further, in data set [5] (rat primary hepatocytes), the “degradation of 125I-LDL” value is listed as “decreased”. The “cell toxicity assessed by TCA-PTA precipitation analysis” value in data set [6] is “no evidence of cell toxicity”. Further, the “DHA-induced degradation of newly synthesized apoB” value in data set [7] is reported as “no decrease”.
On to vitamin E [Vit E], for which the “inhibition of DHA-stimulated apoB100 degradation” value in data set [1] is reported as about 60%. In data set [2], the “DHA-increased ROS, TBARS assay, with co-treatment” value is recorded as “reduced”. In data set [3], the “basal level of apoB degradation” value was “essentially reversed”. The “ROS level (TBARS)” value in data set [4] is on record as “reduced”.

The values above are taken from patent publication US20030170643A1, “Regulation of apoB treatment and drug screening for cardiovascular and metabolic disorders or syndromes” (priority 1999, published 2003).
